Results on one molecule are retold here after PMC7854658, “Structural basis for ligand recognition of the neuropeptide Y Y2 receptor” (Nature Communications, 2021).

The target of one assay is T1, Y2R mutant T308^7.36A (Homo sapiens, UniProt P49146, T308A).
T1 construct: expressed in transfected cells; host or cells: HEK293
T1 sequence (P49146 1-381 T308A): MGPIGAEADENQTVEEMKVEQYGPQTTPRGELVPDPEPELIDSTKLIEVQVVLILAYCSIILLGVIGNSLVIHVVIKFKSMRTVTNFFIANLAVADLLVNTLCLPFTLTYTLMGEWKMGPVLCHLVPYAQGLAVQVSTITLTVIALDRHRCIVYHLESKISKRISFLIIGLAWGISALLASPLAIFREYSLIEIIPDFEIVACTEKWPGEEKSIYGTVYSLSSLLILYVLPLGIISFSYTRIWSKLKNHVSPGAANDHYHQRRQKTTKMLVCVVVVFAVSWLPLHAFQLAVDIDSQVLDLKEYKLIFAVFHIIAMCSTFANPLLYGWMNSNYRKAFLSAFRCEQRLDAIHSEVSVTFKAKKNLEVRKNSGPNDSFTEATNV
Nature of the assay: NPY-induced IP accumulation (IP-One), mutant. Format: cell-based.

The target of a further assay is T2, wild-type Y2R (Homo sapiens, UniProt P49146).
T2 construct: expressed in transfected cells; host or cells: HEK293
T2 sequence (P49146 1-381): T1 sequence (P49146 1-381 T308A) with A308T
Kind of assay: NPY-induced IP accumulation (IP-One) with or without 1 μM antagonist. The following applies: WT. Format: cell-based. How it is done:
The plasmid hY2R_eYFP_pVitro2 encoding the WT Y2R and a fluorophore for investigating the receptor localization was used as template for the generation of receptor point mutations as previously described. Mutagenesis PCR was performed using the Phusion High-Fidelity Polymerase (Thermo Fisher Scientific, Waltham, MA, USA). […] The preparations of the plasmid DNA were performed using the Wizard plus Mini or Midi DNA purification kit (Promega, Madison, WI, USA).
To determine the contribution of residues to antagonist binding, IP-One accumulation assays (Cisbio, Codolet, France) were performed. HEK293 cells were seeded into six-well plates and transiently cotransfected with 3200 ng of receptor plasmid DNA and 800 ng of the chimeric G protein (Gα∆6qi4myr) to redirect the Gαi signaling pathway to the Gαq phospholipase C pathway. Transient transfection was carried out using Metafectene as transfection reagent according to the manufacturer’s protocol (Biontex, Munich, Germany) over night. The cells were then reseeded into white 384-well microplates (Greiner Bio-One, Kremsmünster, Austria) at a density of 15,000 cells per well and grown for additional 24 h.
All dilutions were performed in HBSS containing 20 mM LiCl (stimulation buffer) and DMSO with a final concentration of 0.01%.
To determine the amount of cellular IPs, the FRET acceptor (IP1-d2) and the FRET donor (anti-IP1-Cryptate) were reconstituted and diluted in lysis and detection buffer (1:20) as described in the manufacturer’s protocol. Three microliters of both solutions were added, and the cells were incubated on a tumbler for 60 min.

The subject of assay [1] is opioid and adrenergic receptors. The arrangement: method as in Brothers, S. P. et al., Mol. Pharmacol. 77:46–57, 2010. The note with it: ref Brothers, S. P. et al., Mol. Pharmacol. 77:46–57, 2010; cited from earlier work.
[2] abbreviates: 1 μM antagonist, source data Fig. 3.
Setting [3] is: EC50(NPY + 1 μM antagonist)/EC50(NPY).
[4] abbreviates: EC50 ratio (WT)/EC50 ratio (mutant).

Structures are written as SMILES. Where a chain is given by its changes, count along the chain named. “And” between values parts separate entries of the source, which are not always exact repeats. Equal values may be shown once.

For `N=C(N)NCCC[C@H](NC(=O)CC1(CC(=O)N2CCN(C3c4ccccc4NC(=O)c4ccccc43)CC2)CCCC1)C(=O)NCCn1c(=O)n(-c2ccccc2)n(-c2ccccc2)c1=O` (stereo partly drawn) [BIIE0246], the “Average EC50 ratio” value was found to be 233.8 at Y2R mutant T308^7.36A (setting [2]) and 157.4 at wild-type Y2R (setting [2]). The “EC50 ratio (individual experiments)” value was 248.2 and 219.5 on Y2R mutant T308^7.36A (setting [2]); 143.5 and 171.2 on wild-type Y2R (setting [2]). Further, the EC50 ratio on Y2R mutant T308^7.36A (setting [3]) was 248 and 219; at wild-type Y2R (setting [3]), 144 and 171 and 159. For the same molecule, the “Ratio change (fold)” value is 0.6 fold and 0.7 fold on Y2R mutant T308^7.36A (setting [4]); 1 fold on wild-type Y2R (setting [4]). Also, in assay [1], the “Affinities at opioid and adrenergic receptors” value is “submicromolar”.
